{"source": "patent US20210311075A1", "about": "“METHODS FOR DETECTING DISORDERS RELATED TO CALCIUM DISCHARGE FROM INTRACELLULAR STORES” (The Regents of the University of California, priority 2017, published 2021)", "format_in_all_cases": "cell-based", "key": {"[1]": {"system": "T lymphocytes isolated from RyR163C mice", "test": "Fura-2 intracellular calcium imaging in T lymphocytes from RyR163C mice", "details": "for Δ1/Δ2 ratio: preincubated, fura-2", "text": "(§1) FIGS. 3A and 3B show intracellular calcium measurements in T lymphocytes. […] Shown are average traces recorded from at least 20 cells in one representative experiment."}, "[2]": {"system": "T lymphocytes isolated from control WT mice", "test": "Fura-2 intracellular calcium imaging in T lymphocytes from wild-type mice", "details": "SERCA blocker applied in about 0 mM extracellular calcium; WT cells, compared to 5×FAD and RyR163C", "text": "as §1"}, "[3]": {"system": "T lymphocytes isolated from 5×FAD mice", "test": "Fura-2 intracellular calcium imaging in T lymphocytes from 5×FAD mice", "details": "SERCA blocker applied in about 0 mM extracellular calcium; 5×FAD T lymphocytes", "text": "as §1"}}, "data": [{"molecule": "O=C1CN(/N=C/c2ccc(-c3ccc([N+](=O)[O-])cc3)o2)C(O)=N1", "note": "[dantrolene]", "values": [{"measurement": "basal intracellular calcium levels", "setting": "[1]; dantrolene 50 μM", "result": "reducing"}, {"measurement": "responses to thapsigargin", "setting": "[1]; dantrolene 50 μM", "result": "increasing"}, {"measurement": "Δ1/Δ2 ratio", "setting": "[1]; dantrolene 50 μM", "result": "reduced"}]}, {"molecule": "C/C=C(/C)C(=O)O[C@H]1C(C)=C2[C@H]([C@@H]1OC(=O)CCCCCCC)[C@@](C)(OC(C)=O)C[C@H](OC(=O)CCC)[C@@]1(O)[C@H]2OC(=O)[C@@]1(C)O", "note": "[thapsigargin]", "values": [{"measurement": "intracellular calcium transients evoked (Δ2=F3−F2)", "setting": "[2]", "result": "larger"}, {"measurement": "intracellular calcium transients evoked (Δ2=F3−F2)", "setting": "[1]; SERCA blocker applied in about 0 mM extracellular calcium", "result": "barely detectable"}, {"measurement": "intracellular calcium transients evoked (Δ2=F3−F2)", "setting": "[3]", "result": "barely detectable"}]}, {"molecule": "ryanodine", "values": [{"measurement": "basal intracellular calcium levels", "setting": "[1]; ryanodine 800 μM", "result": "reducing"}, {"measurement": "responses to thapsigargin", "setting": "[1]; ryanodine 800 μM", "result": "increasing"}, {"measurement": "Δ1/Δ2 ratio", "setting": "[1]; ryanodine 800 μM", "result": "reduced"}]}]}
